Source: patent US20210023223A1, “HYDROCARBON / LIPID - CAROTENOID COMPLEXES” (IP SCIENCE LIMITED, priority 2018, published 2021)
Like-named read-outs stand apart in the source and are kept apart here.

What was measured:
[1] = test system: moderately obese volunteers; experiment: Serum lipids after 20 mg lycopene for 1 month; format: in vivo, human
Procedure: (§1) Study Design. The total number of volunteers recruited to take part in the study was 18 (9 male and 9 female subjects) Caucasians 40-67 years old.
(§2) Products Formulated with Lycopene was developed and made by Lycotec Ltd. (Cambridge, United Kingdom). The daily dose was 1 capsule of 20 mg of lycopene, and it was taken with the main meal of the day. The period of administration was 1 month.
(§3) Blood was collected by phlebotomy in the morning, in the hospital, from the arm veins of patients following night fast. The serum was separated from the rest of the clotted mass by centrifugation; aliquots were then stored in code-labelled tubes for blinded analysis and stored at −80° C. until use.

[2] = test system: moderately obese volunteers; experiment: LDL-Px, serum LDL peroxidase proteins; format: in vivo, human
Procedure: as §1, §2
LDL-Px and Lipoprotein O2. Activity of serum LDL peroxidase proteins, which include IgG with superoxide dismutase activity, was measured as described previously. Plasma oxygen, which carried by blood lipids/lipoproteins was measured by catalymetry.

[3] = test system: individuals with a moderate hyperlipidemia; experiment: Clinical Trial DHA-Lycopene, 4 weeks; format: in vivo, human; conditions: medians, DHA 250 mg and/or lycopene 7 mg once a day
Procedure: To validate this, a clinical trial was undertaken. 32 individuals aged 40-65 years old with a moderate hyperlipidemia (serum triglycerides, TG, >150 mg/dl and LDL from 130 to 160 mg/dl). They were randomised and split in four groups of 8: • The first was supplemented with a 250 mg of conventional formulation of DHA without lycopene (CF-DHA), • the second with 7 mg of lycopene, • the third with 250 mg of DHA and 7 mg of lycopene co-ingested at the same time but as two separate products, and • the fourth group received 7 mg lycopene formulated with 250 mg of DHA (LF-DHA). All products were taken once a day with the main meal. The duration of the trial was for 4 weeks.

[4] = Size of Olive oil lipid droplets, microscopy; format: physicochemical; set-up: Olive oil lipid droplets, Droplet square: unit not given here
Procedure: For measurement of lipid droplets and fat globules and quantification of their size binocular microscope Olympus BX41 was used with Cell^B software for morphometric analysis. All parameters were collected from 10 randomly selected microscopic fields at ×1000).
When lycopene was added to olive oil, rich with monounsaturated fatty acids, it increased the size of its lipid droplets in a dose-dependent manner, and table 4.

[5] = Oil volume needed to cover water surface; format: physicochemical; conditions: vs unmodified olive oil
From the text: The other way to assess changes in oil viscosity, caused by carotenoids, would be to measure how much oil would be needed to cover a water surface of the same size. The lower viscosity of the oil the more spreadable it will be, and consequently less of it would be needed to cover this surface. Therefore, by measuring how much oil would be required to cover a certain surface of water we can asses how deep changes in the lipid folding were made by incorporating carotenoids.
An additional nine heating experiments were carried out when either pure Napolina olive oil, Napolina olive oil containing Astaxanthin (7 mg/ml), or Napolina olive oil containing Lycopene (7 mg/ml) was carefully poured over the surface of the water in order to prevent evaporation. The amount of oil required to completely cover the surface of the 100 ml water sample in the cup (diameter—7.4 cm) was measured (15 ml Falcon laboratory tubes and 1 ml Pipetman pitettes were used) and recorded for each oil type. The thickness of the resulting oil film (necessary to completely cover water surface) was then calculated. Temperature change curves were compared for uncovered water and water samples overlayed with three varieties of oil at heating temperatures of 200° C., 250° C. and 300° C. Water samples overlaid with oils were heated until water reached boiling point (usually at 99° C.). […]

[6] = Lycopene in serum and cerumen after 20 mg lycopene for 1 month; format: in vivo, human; conditions: n = 18; for concentration at 1 month: both sexes, human, oral, after 20 mg lycopene daily for one month
Procedure: as §1, §2, §3
For sample collection from the surface of the facial skin and samples of the cerumen all study participants were requested to avoid facial and ear hygienic manipulations for 24 hours before sampling, which was carried out in the morning in parallel with blood sample collection. Skin surface sample collection and preparation was performed as previously described. Briefly, samples were collected using polyester swabs from the surface of the facial skin (the sides of the nose). During the procedure two samples were taken (one swab per side). Each collected sample was placed on the surface of a microscope slide. A second microscope slide was pressed against the surface of the first one. This procedure provided a pair of identical smears. All slides with collected samples were coded to provide sample anonymity for blinded analysis and stored at −20° C. until further analysis.
The lycopene concentration in all serum samples was measured in duplicate by high-performance liquid chromatography with modifications. Briefly, 400 μl of serum was mixed with 400 μl of ethanol and was extracted twice with 2 ml hexane. The combined hexane layers were evaporated to dryness in a vacuum (Scan Speed 32 centrifuge) and the residue reconstituted to a volume of 100 μl in sample solution (absolute ethanol—methylene chloride, 5:1, v/v). The specimens were centrifuged again (15 minutes at 10,000 g) and clear supernatant was transferred to HPLC vials. Five microliters of the extract was injected into an Acquity HSS T3 75×2.1 mm 1.8 μm column (Waters, USA) preceded by a Acquity HSS T3 1.8 μm VanGuard precolumn (Waters, USA) and eluted isocratically at 45° C. with the mobile phase (acetonitrile—0.08% phosphoric acid solution—tert-Butyl methyl ether, 70:5:25, v/v/v) at a flow rate of 0.5 ml/min. The lycopene peak was detected by a Photodiode Array Detector (Waters, USA) at 474 nm. The peak area was measured using Empower 3 software (Waters, Mass.). The lycopene concentration in serum samples was calculated by reference to an analytical standard (lycopene from tomato, L9879, Sigma, USA).

[7] = after 20 mg lycopene daily for one month
[8] = lycopene dose 0.1 per 30 g of Olive oil
[9] = lycopene dose 0.5 per 30 g of Olive oil
[10] = lycopene dose 1.0 per 30 g of Olive oil
[11] = lycopene dose 2.0 per 30 g of Olive oil
[12] = lycopene dose 3.5 per 30 g of Olive oil
[13] = lycopene dose 7.0 per 30 g of Olive oil
[14] = lycopene dose 10.0 per 30 g of Olive oil

Olive oil lipid droplets, Droplet square [4, 8]: 27.2
Size of Olive oil lipid droplets, Mean [4, 8]: 46.24 μm
Olive oil lipid droplets, Droplet square [4, 9]: 36.36
Size of Olive oil lipid droplets, Mean [4, 9]: 40.00 μm
Olive oil lipid droplets, Droplet square [4, 10]: 10.29
Size of Olive oil lipid droplets, Mean [4, 10]: 185.13 μm
Olive oil lipid droplets, Droplet square [4, 11]: 17.39
Size of Olive oil lipid droplets, Mean [4, 11]: 260.80 μm
Olive oil lipid droplets, Droplet square [4, 12]: 24.05
Size of Olive oil lipid droplets, Mean [4, 12]: 457.00 μm
Olive oil lipid droplets, Droplet square [4, 13]: 61.31
Size of Olive oil lipid droplets, Mean [4, 13]: 490.50 μm
Olive oil lipid droplets, Droplet square [4, 14]: 36.77
Size of Olive oil lipid droplets, Mean [4, 14]: 367.70 μm
Increase in lipid droplet diameter, could reach ([4]; olive oil): 20 fold
Reduction of oil required to cover the same water area [5]: ~60%
Lycopene in cerumen ([6]; before): 0.29 ± 0.05 ng/mg
Lycopene in serum ([6]; before): 137 ± 14.5 ng/mL
concentration at 1 month ([6]; cerumen, read-out: Lycopene in cerumen): 900 ± 120 ng/g
concentration at 1 month ([6]; serum, read-out: Lycopene in serum): 310 ± 29.9 ng/mL
SMILES: CC(C)=CCC/C(C)=C/C=C/C(C)=C/C=C/C(C)=C/C=C/C=C(C)/C=C/C=C(C)/C=C/C=C(\C)CCC=C(C)C [Lycopene]
HDL [1, 7]: 49.9 ± 3.0^ mg/dL
LDL [1, 7]: 121 ± 10.5 mg/dL
Triglycerides [1, 7]: 128 ± 9.7 mg/dL
HDL ([1]; before, n = 18): 49.2 ± 2.9^ mg/dL
LDL ([1]; before, n = 18): 134 ± 11.3 mg/dL
Triglycerides ([1]; before, n = 18): 136 ± 10.1 mg/dL
LDL-Px [2, 7]: 286 ± 29^ ELISA × 10^3
LDL-Px ([2]; before, n = 18): 545 ± 49^ ELISA × 10^3
LDL ([3]; 0 w): 156.0 mg/dL
Triglycerides ([3]; 0 w): 203.5 mg/dL
LDL ([3]; 4 w): 155.5 mg/dL
Triglycerides ([3]; 4 w): 190.0 mg/dL
